Legend:
[1] = tested on: HL-60; test: Induction of TNFalpha release from human HL-60 cells after 24 hrs by ELISA; assay type: functional
[2] = species: Oryctolagus cuniculus; test: Activation of rabbit brain PKC assessed as [32P] incorporation in histone 3-S from [gamma32P]ATP
[3] = species: Mus musculus; test: Carcinogenesis in CD1 mouse skin assessed as tumor incidence at 400 nmol twice a week for 20 weeks; assay type: functional
[4] = Displacement of [3H]PDBu from partially purified rabbit brain PKC; design: species or system Oryctolagus cuniculus
[5] = tested on: HL-60; test: Induction of human HL-60 cell adhesion after 48 hrs; assay type: functional
[6] = species: Mus musculus; test: Carcinogenesis in CD1 mouse skin assessed as tumor incidence at 4 nmol twice a week for 20 weeks; assay type: functional

SMILES | ED100 [1] | ED50 [2] | Activity [3] | IC50 [4] | Activity [5] | Activity [6]
C=C(/C=C/C=C(/CO)[C@@H]1CC[C@]2([C@H](CCCO)/C(=C(/C)C=O)CC[C@]2(C)O)[C@H]1O)CCC=C(C)C | 3000 nM | 300 nM | 64.3% | 200 nM | 500 nM | 
CCCCCCCCCCCCCC(=O)O[C@@H]1[C@@H](C)[C@@]2(O)[C@@H](C=C(CO)C[C@]3(O)C(=O)C(C)=C[C@@H]23)[C@@H]2C(C)(C)[C@]12OC(C)=O [PHORBOL MYRISTATE ACETATE] | 6 nM | 15 nM |  | 15 nM | 3 nM | 93.3%
